≈ marks a conversion by molar mass, not a printed value.
Assays:
Staphylococcus aureus [1] = assay: Antibacterial activity against methicillin-resistant Staphylococcus aureus by broth microdilution method; format: functional
Staphylococcus aureus [2] = assay: Antibacterial activity against methicillin-resistant Staphylococcus aureus by Etest method; format: functional

SMILES	MIC (Staphylococcus aureus [1]) [µg/mL]	MIC (Staphylococcus aureus [2]) [µg/mL]
CCCCCCCCCC(=O)N[C@@H](Cc1c[nH]c2ccccc12)C(=O)N[C@H](CC(N)=O)C(=O)N[C@@H](CC(=O)O)C(=O)N[C@@H]1C(=O)NCC(=O)N[C@@H](CCCN)C(=O)N[C@@H](CC(=O)O)C(=O)N[C@H](C)C(=O)N[C@@H](CC(=O)O)C(=O)NCC(=O)N[C@H](CO)C(=O)N[C@@H]([C@H](C)CC(=O)O)C(=O)N[C@@H](CC(=O)c2ccccc2N)C(=O)O[C@@H]1C	≤ 0.25	0.38 (≈ 0.234 µM)
CN[C@H](CC(C)C)C(=O)N[C@H]1C(=O)N[C@@H](CC(N)=O)C(=O)N[C@H]2C(=O)N[C@H]3C(=O)N[C@H](C(=O)N[C@H](C(=O)O)c4cc(O)cc(O)c4-c4cc3ccc4O)[C@H](O)c3ccc(c(Cl)c3)Oc3cc2cc(c3O[C@@H]2O[C@H](CO)[C@@H](O)[C@H](O)[C@H]2O[C@H]2C[C@](C)(N)[C@H](O)[C@H](C)O2)Oc2ccc(cc2Cl)[C@H]1O [VANCOMYCIN]	> 1	
